Consider 31 molecules from patent EP4810040A2, “INHIBITORS OF APOL1 AND METHODS OF USING SAME” (priority 2020, dated 2022).

The target of this assay is T1, APOL1 G1 (Homo sapiens, UniProt O14791, I384M/S342G).
T1 sequence (O14791 28-398 S342G/I384M): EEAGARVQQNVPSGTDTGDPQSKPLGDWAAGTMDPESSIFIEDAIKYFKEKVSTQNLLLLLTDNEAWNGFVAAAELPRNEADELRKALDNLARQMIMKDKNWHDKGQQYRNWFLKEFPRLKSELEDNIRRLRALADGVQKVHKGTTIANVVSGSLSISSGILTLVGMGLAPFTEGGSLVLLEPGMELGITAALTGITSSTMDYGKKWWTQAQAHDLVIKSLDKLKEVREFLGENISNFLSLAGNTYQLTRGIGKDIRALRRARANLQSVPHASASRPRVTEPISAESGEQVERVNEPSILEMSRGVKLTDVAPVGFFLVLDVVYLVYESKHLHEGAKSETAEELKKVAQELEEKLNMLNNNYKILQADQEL
Description: MultiTox-Fluor Multiplex Cytotoxicity Assay, tet-inducible APOL1 G1 T-REx-HEK293 cells. In kind it is cell-based. Set-up: expressed in transfected cells; host or cells: T-REx HEK293, clone G1 DC3.25 (pAAVS1-Puro-APOL1 G1). The settings on record: for IC90: HEK293, Multi-Tox Assay, APOL1 variant (G0/G1/G2) of the HEK293 cells not given, read-out: Multi-Tox Assay IC90; for Multi-Tox Assay Max Activity (%) / Emax: APOL1 variant not given, Multi-Tox Assay; for Emax: read-out: Multi-Tox Assay Max Activity (%). On the procedure:
The MultiTox-Fluor Multiplex Cytotoxicity Assay is a single-reagent-addition, homogeneous, fluorescence assay that measures the number of live and dead cells simultaneously in culture wells. The assay measures cell viability and cytotoxicity by detecting two distinct protease activities. The live-cell protease activity is restricted to intact viable cells and is measured using a fluorogenic, cell-permeant peptide glycyl-phenylalanylamino fluorocoumarin (GF-AFC) substrate. The substrate enters intact cells, where it is cleaved to generate a fluorescent signal proportional to the number of living cells. […] A second, cell-impermeant, fluorogenic peptide substrate (bis-AAF-R110 Substrate) is used to measure dead-cell protease that has been released from cells that have lost membrane integrity. A ratio of dead to live cells is used to normalize data.
Briefly, the tet-inducible transgenic APOL1 T-REx-HEK293 cell lines were incubated with 50 ng/mL tet to induce APOL1 in the presence of 3-(2-(4-fluorophenyl)-1H-indol-3-yl)-N-((3S,4R)-4-hydroxy-2-oxopyrrolidin-3-yl)propenamide at […], 0.0045, 0.0015, 0.0005 µM in duplicate for 24 hours in a humidified 37°C incubator. The MultiTox reagent was added to each well and placed back in the incubator for an additional 30 minutes. The plate was read on the EnVision plate reader. A ratio of dead to live cells was used to normalize, and data was imported, analyzed and fit using Genedata Screener (Basel, Switzerland) software. Data was normalized using percent of control, no tet (100% viability), and 50 ng/mL tet treated (0% viability),and fit using Smart Fit. The reagents, methods, and complete protocol for the MultiTox assay are described below. Table 42. Reagents Used in the Multi-Tox Assay
Human embryonic kidney (HEK293) cell lines containing a tet-inducible expression system (T-REx™; Invitrogen, Carlsbad, CA) and Adeno-associated virus site 1 pAA VS1-Puro-APOL1 G0 or pAAVS1-Puro-APOL1 G1 or pAAVS1-Puro-APOL1 G2 Clones G0 DC2.13, G1 DC3.25, and G2 DC4.44 were grown in a T-225 flask at ~90% confluency in cell growth media (DMEM, 10% Tet-free FBS, 2 mM L-glutamine, 100 Units/mL penicillin-streptomycin, 5 µg/mL blasticidin S HCl, 1 µg/mL puromycin dihydrochloride). Cells were washed with DPBS and then trypsinized to dissociate from the flask. Media was used to quench the trypsin, cells were then pelleted at 200g and resuspended in fresh cell assay media (DMEM, 2% Tet-free FBS, 2 mM L-glutamine, 100 Units/mL penicillin-streptomycin). Cells were counted and diluted to 1.17 x 10^6 cells/mL. 20 µL of cells (23,400/well) were dispensed to every well of a 384-well Poly-D-Lysine coated plate using the Multidrop dispenser. The plates were then incubated at room temperature for one hour.
Tetracycline is needed to induce APOL1 expression. 1 mg/mL tet stock in water was diluted to 250 ng/mL (5X) in cell assay media. 60 µL of cell assay media (no tet control) was dispensed in columns 1 and 24, and 60 µL of 5X tet was dispensed in 384-PP-round bottom plate in columns 2 to 23 with the Multidrop dispenser.
Assay ready plates from the Global Compound Archive were ordered using template 384_APOL1Cell_DR10n2_50uM_v3. Compounds were dispensed at 200 nL in DMSO. The final top concentration was 10 µM with a 10 point 3-fold dilution in duplicate in the MultiTox assay.
20 µL were transferred from the 5X tet plate to the ARP and mixed, then 5 µL of 5X tet and the compounds were transferred to the cell plate and mixed using the Bravo. The cell plate was placed in the humidified 37°C 5% CO2 incubator for 24 hours.
The MultiTox-Fluor Multiplex Cytotoxicity Assay was performed in accordance with the manufacturer's protocol. […]

The IC90 is the concentration needed for an effect of 90%. For `Cc1cc([C@@H]2C[C@]3(C[C@H](C)N2)OCCc2cc(Cl)sc23)nn1C` (racemic) [Compound 98], the concentration for an effect of 90% (IC90) is under 50 nM.

In the case of `CC(C)C(=O)NCCn1cc([C@@H]2C[C@]3(C[C@H](C)N2)OC[C@@H](O)c2cc(Cl)sc23)nn1` [Compound 230], the IC90 is over 500 nM and the “Multi-Tox Assay Max Activity (%)” value is 98.0%. The matching figures for `C[C@H]1C[C@@]2(C[C@@H](c3ccnc(N(C)C)n3)N1)OCCc1cc(Cl)sc12` (racemic) [Compound 127]: 50 to 500 nM and 99.3%. The matching figures for `C[C@H]1C[C@@]2(C[C@@H](c3cn(CC4(O)CC4)nn3)N1)OC[C@@H](O)c1cc(Cl)sc12` [Compound 233]: 50 to 500 nM and 100.0%. Turning to `Cc1cc([C@@H]2C[C@]3(C[C@H](C)N2)OCCc2cc(Cl)sc23)[nH]n1` (racemic) [Compound 73], the IC90 is under 50 nM and the Emax is 99.8%. Regarding `C[C@H]1C[C@@]2(C[C@@H](c3cn(CC(N)=O)nn3)N1)OCCc1cc(Cl)sc12` (racemic) [Compound 133], the concentration for an effect of 90% (IC90) is 50 to 500 nM and the “Multi-Tox Assay Max Activity (%)” value is listed as 99.7%.

For the molecule `C[C@H]1CC2(C[C@@H](c3cn(C)nn3)N1)OCCc1sc(Cl)cc12` (single isomer, unassigned) [Compound 173], the IC90 was under 50 nM and the Emax is 99.5%.

For `Clc1cc2c(s1)C1(C[C@@H](C3CC3)N[C@@H](C3CC3)C1)OCC2` (single isomer, unassigned) [Compound 206], the IC90 was in the range of 50 to 500 nM and the Emax turned out to be 99.3%. In the case of `C[C@H]1C[C@@]2(C[C@@H](c3cnn(CC(=O)N(C)C)c3)N1)OCCc1cc(Cl)sc12` [Compound 18, 2-[4-[(2S, 6S)-2-chloro-6'-methyl-spiro[4,5-dihydrothieno[2,3-c]pyran-7,4'-piperidine]-2'-yl]pyrazol-1-yl]-N,N-dimethyl-acetamide], the 90% effect concentration (IC90) is under 50 nM and the Emax is 99.5%.

For the molecule `Cc1noc(C)c1Cn1cc([C@@H]2C[C@]3(C[C@H](C)N2)OCC(F)(F)c2cc(Cl)sc23)nn1` [Compound 353], the concentration for an effect of 90% (IC90) was under 50 nM and the “Multi-Tox Assay Max Activity (%)” value was 100.0%. As for `C[C@H]1C[C@@]2(C[C@@H](c3cn(Cc4cccnn4)nn3)N1)OC[C@@H](O)c1cc(Cl)sc12` [Compound 280], the concentration for an effect of 90% (IC90) lay within 50 to 500 nM.

As for `Cc1nc(Cn2cc([C@@H]3C[C@]4(C[C@H](C)N3)OCC(F)(F)c3cc(Cl)sc34)nn2)oc1C` [Compound 337], the 90% effect concentration (IC90) is 50 to 500 nM. Turning to `COc1ccc([C@@H]2C[C@]3(C[C@H](C)N2)OCCc2cc(Cl)sc23)cn1` (racemic) [Compound 49], the IC90 was under 50 nM and the Emax amounted to 99.7%.

For the molecule `Cc1cc(Cn2cc([C@@H]3C[C@]4(C[C@H](C)N3)OCC(F)(F)c3cc(Cl)sc34)nn2)ccn1` [Compound 336], the IC90 fell in the range of 50 to 500 nM.

Regarding `CCc1cc2c(s1)CCO[C@@]21C[C@@H](c2cnn(CCS(C)(=O)=O)c2)N[C@@H](C)C1` [Compound 5], the IC90 lay within 50 to 500 nM and the “Multi-Tox Assay Max Activity (%)” value is listed as 100.0%. Consider `COc1ccc(C2CC3(CC(C)N2)OCCc2cc(Cl)sc23)nc1` (centres unmarked) [Compound 34], for which the IC90 is under 50 nM. On the same count and under the same terms, as for `COc1ccc(Cn2cc([C@@H]3C[C@]4(C[C@H](C)N3)OC[C@@H](O)c3cc(Cl)sc34)nn2)cc1F` [Compound 245], the figure is 50 to 500 nM.

In the case of `Cc1nc[nH]c1[C@@H]1C[C@]2(C[C@H](C)N1)OCCc1cc(Cl)sc12` (racemic) [Compound 161], the IC90 was over 500 nM and the “Multi-Tox Assay Max Activity (%)” value is listed as 92.4%. The matching figures for `COc1cc(F)cc(Cn2cc([C@@H]3C[C@]4(C[C@H](C)N3)OC[C@@H](O)c3cc(Cl)sc34)nn2)c1` [Compound 293]: under 50 nM and 100.0%. `C[C@H]1C[C@@]2(C[C@@H](CC3CCOCC3)N1)OCCc1cc(Cl)sc12` [Compound 219, (2S,6R)-2-chloro-2'-methyl-6'-(tetrahydropyran-4-ylmethyl)spiro[4,5-dihydrothieno[2,3-c]pyran-7,4'-piperidine]]: the concentration for an effect of 90% (IC90) was over 500 nM and the Emax is 88.7%. Consider `C[C@H]1C[C@@]2(C[C@@H](c3cccc(=O)[nH]3)N1)OCCc1cc(Cl)sc12` (racemic) [Compound 151], for which the concentration for an effect of 90% (IC90) was over 500 nM and the “Multi-Tox Assay Max Activity (%)” value amounted to 96.2%. Take `Cc1nc([C@@H]2C[C@]3(C[C@H](C)N2)OCCc2cc(Cl)sc23)cn1C` (racemic) [Compound 159]: the IC90 was over 500 nM and the “Multi-Tox Assay Max Activity (%)” value was determined as 92.2%. The matching figures for `C[C@H]1C[C@@]2(C[C@@H](c3ccnn3C)N1)OCCc1cc(Cl)sc12` (racemic) [Compound 152]: over 500 nM and 98.0%. Regarding `C[C@H]1C[C@@]2(C[C@@H](c3cn(Cc4ccc(C#N)nc4)nn3)N1)OC[C@@H](O)c1cc(Cl)sc12` [Compound 236], the concentration for an effect of 90% (IC90) lay in the range of 50 to 500 nM and the “Multi-Tox Assay Max Activity (%)” value was found to be 100.0%. As for `C[C@H]1C[C@@]2(C[C@@H](c3ccccn3)N1)OCCc1cc(Cl)sc12` (racemic) [Compound 83], the IC90 is under 50 nM and the Emax came to 99%. For the molecule `C[C@H]1C[C@@]2(C[C@@H](c3cccc(NS(C)(=O)=O)c3)N1)OCCc1cc(Cl)sc12` (racemic) [Compound 115], the IC90 fell in the range of 50 to 500 nM and the “Multi-Tox Assay Max Activity (%)” value is recorded as 99.3%. Consider `C[C@H]1C[C@@]2(C[C@@H](c3cn(C)nn3)N1)OCCc1cc(Cl)sc12` [Compound 1, (2'S, 6'S, 7S)-2-chloro-2'-methyl-6'-(1-methyltriazol-4-yl)spiro[4,5-dihydrothieno[2,3-c]pyran-7,4'-piperidine]], for which the IC90 is under 50 nM and the Emax was 99.3%.

As to `C[C@H]1C[C@@]2(C[C@@H](c3cn(Cc4n[nH]c5ccccc45)nn3)N1)OCC(F)(F)c1cc(Cl)sc12` [Compound 349], the 90% effect concentration (IC90) was over 500 nM and the “Multi-Tox Assay Max Activity (%)” value came to 91.0%.

For `Cc1nnc(Cn2cc([C@@H]3C[C@]4(C[C@H](C)N3)OC[C@@H](O)c3cc(Cl)sc34)nn2)[nH]1` [Compound 272], the IC90 was over 500 nM and the “Multi-Tox Assay Max Activity (%)” value amounted to 95.0%.

For `CC(C)Cc1cc2c(s1)C1(C[C@@H](C)N[C@@H](C)C1)OCC2` (single isomer, unassigned) [Compound 201], the concentration for an effect of 90% (IC90) was over 500 nM and the Emax is 95%. The matching figures for `Cn1cc(C2CC3(CC(C4CCC4)N2)OCCc2cc(Cl)sc23)nn1` (centres unmarked) [Compound 189]: over 500 nM and 97%.
